Several values for one entry are separate records, joined by “and”; a condition that tells them apart may be missing. Equal values may be shown once. Read-outs that look alike come from different tables or passages of the source. No end group written: not given here.
Columns and labels:
[1] = molecular target: HLA-B*4001 (Homo sapiens, UniProt P01889, A65T/A93T/A95T/D138N/D98Y/E176V/E69K/N87E/Q56L/Q94N/R180L/S121R/S35A/S48T/T167S/V36M/W171L/Y33H/Y91S); assay: biochemical; assay type: binding
[2] = molecular target: HLA-B*1801 (Homo sapiens, UniProt P01889, A329T/A93T/A95T/C349S/D201E/D54G/D98Y/E176V/E187T/E204Q/E69T/K202T/Q94N/R155S/R180L/S121R/V306I/Y140S/Y195H/Y33H/Y91S); assay: biochemical; assay type: binding
[3] = molecular target: HLA-B*4403 (Homo sapiens, UniProt P01889, A223V/A65T/A93T/A95T/D201E/D98Y/E176V/E187L/E204Q/E69K/G107R/H137Y/K202T/L105A/L119I/N104T/N87E/Q56L/Q94N/R106L/R155S/R180L/S101N/S121R/S35A/S48T/T118I/V36M/W191S/Y140D/Y91S); assay: biochemical; assay type: binding
[4] = molecular target: HLA-B*4501 (Homo sapiens, UniProt P01889, A329T/A65T/A93T/A95T/C349S/D138N/D201E/D98Y/E176V/E187L/E204Q/E69K/H137Y/K202T/L119W/N87E/Q56L/Q94N/R155S/R180D/S121R/S35A/S48T/V127L/V306I/V36M/W191S/Y140L/Y33H/Y91S); assay: biochemical; assay type: binding
[5] = molecular target: HLA-B*4402 (Homo sapiens, UniProt P01889, A223V/A65T/A93T/A95T/D201E/D98Y/E176V/E187L/E204Q/E69K/G107R/H137Y/K202T/L105A/L119I/N104T/N87E/Q56L/Q94N/R106L/R155S/R180D/S101N/S121R/S35A/S48T/T118I/V36M/W191S/Y140D/Y91S); assay: biochemical; assay type: binding
[6] = molecular target: HLA-B*4002 (Homo sapiens, UniProt P01889, A65T/A93T/A95T/D138N/D201E/D98Y/E176V/E204Q/E69K/K202T/N87E/Q56L/Q94N/R180L/S48T/Y33H/Y91S); assay: biochemical; assay type: binding
[7] = molecular target: HLA-A*0101 (Homo sapiens, UniProt P04439, A114D/A174V/A182V/D101N/D185E/E176A/E190D/L180R/Q94H/R68K/S129P/T187R/V100A/V91M/W191G); assay: biochemical; assay type: binding
[8] = molecular target: HLA-A*3002 (Homo sapiens, UniProt P04439, D101N/D140H/D185E/E176R/F33S/G80R/H175R/K168Q/Q94H/R138E/R41S/V100E); assay: biochemical; assay type: binding
[9] = molecular target: HLA-A*2902 (Homo sapiens, UniProt P04439, A270S/D101N/D185E/E176V/E277Q/E87Q/F33T/G231S/H175R/I121M/I218V/I322F/K168Q/L300P/L318F/M331R/P208A/P217A/Q86L/T323A/T345S/V100A/V358M); assay: MHC molecular binding / Capture assay, IC50: A*2902
[10] = Binding affinity to A*0101 (expressed as an IC50)
[11] = Binding affinity to A*3002 (expressed as an IC50)
[12] = read-out: Binding affinity to A*0101 (expressed as an IC50)
[13] = Binding affinity to A*2902 (expressed as an IC50)

Compound	IC50 [7, 10]	IC50 [2]	IC50 [3]	IC50 [4]	IC50 [5]	IC50 [6]	other results
LDKGIKPY							IC50 ([1]; B*4001): 17900 nM; IC50 ([2]; B*1801): > 100000 nM; IC50 ([3]; B*4403): 19300 nM; IC50 ([4]; B*4501): 23600 nM; IC50 ([5]; B*4402): > 43200 nM; IC50 ([6]; B*4002): 468 nM
EEKPRTLHDL							IC50 ([1]; B*4001): 36200 nM; IC50 ([2]; B*1801): > 81600 nM; IC50 ([3]; B*4403): 30000 nM; IC50 ([4]; B*4501): 419 nM; IC50 ([5]; B*4402): 15200 nM; IC50 ([6]; B*4002): 34000 nM
AENLYVTVF							IC50 ([1]; B*4001): 17 nM; IC50 ([3]; B*4403): 47 nM; IC50 ([4]; B*4501): 69 nM; IC50 ([5]; B*4402): 39 nM; IC50 ([6]; B*4002): 3.1 nM
ITEYRHYQY	90 nM						
C[C@H](NC(=O)[C@H](Cc1c[nH]c2ccccc12)NC(=O)[C@H](Cc1ccc(O)cc1)NC(=O)[C@H](CC(=O)O)NC(=O)[C@H](Cc1ccc(O)cc1)NC(=O)[C@@H](NC(=O)CN)[C@@H](C)O)C(=O)NCC(=O)N[C@@H](Cc1ccc(O)cc1)C(=O)O	141 nM						
AEIPKLAYF							IC50 ([1]; B*4001): 57 nM; IC50 ([2]; B*1801): 1640 nM; IC50 ([3]; B*4403): 57 nM; IC50 ([4]; B*4501): 608 nM; IC50 ([5]; B*4402): 229 nM; IC50 ([6]; B*4002): 5.6 nM
ATELHPEYY	43 nM						IC50 [8]: 1730 nM
AENLWVTVQ		49600 nM	188 nM	100 nM	1220 nM	85 nM	
YENLWVTVY		29 nM	369 nM	10700 nM	640 nM	324 nM	
AENKWVTVY		781 nM	540 nM	297 nM	294 nM	534 nM	IC50 [1]: 11300 nM
LSLGPGPGFY	21 nM						IC50 [8, 11]: 8.2 nM
HTDTPTLHEY	20 nM and 30 nM						IC50 [8]: 54 nM
FENLWVTVY		59 nM	1310 nM	21400 nM	4180 nM	1340 nM	IC50 [1]: 943 nM
KTYGPGPGLY	5.7 nM						IC50 [8, 11]: 0.96 nM
AETLWVTVY		199 nM	221 nM	774 nM	501 nM	198 nM	
LDPYARVAI		> 24400 nM	> 39800 nM	> 49000 nM	> 41600 nM	372 nM	IC50 [1]: > 88900 nM
CC(C)C[C@H](NC(=O)[C@H](C)N)C(=O)N[C@@H](Cc1ccccc1)C(=O)N[C@@H](CCC(N)=O)C(=O)N[C@@H](CCC(=O)O)C(=O)N[C@@H](Cc1ccc(O)cc1)C(=O)N[C@@H](CCC(N)=O)C(=O)N[C@@H](CS)C(=O)N[C@@H](Cc1ccc(O)cc1)C(=O)O	> 42000 nM						
LSGPGPGAIFY							IC50 [7, 12]: 25 nM
AENLWVTVP		38400 nM	2470 nM	187 nM	7720 nM	339 nM	IC50 [1]: 9710 nM
GEFPYKAAA							IC50 ([1]; B*4001): 170 nM; IC50 ([3]; B*4403): 2540 nM; IC50 ([4]; B*4501): 11 nM; IC50 ([5]; B*4402): 746 nM; IC50 ([6]; B*4002): 3.9 nM
AENLWVTVM		508 nM	35 nM	50 nM	195 nM	6.1 nM	IC50 [1]: 13 nM
NVDQQNIDMY							IC50 [7, 12]: 47 nM
LSLDGPGPGY	266 nM						IC50 [9, 13]: 274 nM
DLWYYHTQGYY							IC50 [7, 12]: 5880 nM
RTETPTLQDY	11 nM and 40 nM						IC50 [9]: 1990 nM
AEMGKFKFSY							IC50 ([2]; B*1801): 1520 nM; IC50 ([3]; B*4403): 28 nM; IC50 ([4]; B*4501): 283 nM; IC50 ([5]; B*4402): 146 nM; IC50 ([6]; B*4002): 622 nM
NLALLYGEY	275 nM						IC50 [8, 11]: 102 nM
AENLWVTVE		> 258000 nM	2570 nM	246 nM	8910 nM	1360 nM	IC50 [1]: 3890 nM
KTGPGPGHLY	29 nM						IC50 [8, 11]: 1.3 nM
CC(C)C[C@H](NC(=O)[C@H](CC(=O)O)NC(=O)[C@H](CC(C)C)NC(=O)[C@@H](NC(=O)[C@H](Cc1ccc(O)cc1)NC(=O)[C@H](CCC(=O)O)NC(=O)[C@H](CCCCN)NC(=O)[C@H](CC(C)C)NC(=O)[C@@H](NC(=O)[C@@H]1CCCN1)[C@@H](C)O)C(C)C)C(=O)N[C@@H](Cc1ccc(O)cc1)C(=O)O	426 nM						IC50 [9, 13]: 805 nM

From US20060079453A1, “Hla binding peptides and their uses” (priority 2002, published 2006)
